Paper PMC6112376, “Comprehensive Analyses and Prioritization of Tox21 10K Chemicals Affecting Mitochondrial Function by in-Depth Mechanistic Studies” (Environmental Health Perspectives, 2018)
Counter-ions that a name gives are not always drawn. Like-named read-outs stand apart in the source and are kept apart here.

Key:
HepG2 cells [1] = test: cells; conditions: Homo sapiens; for Emax: HepG2, read-out: MMP assays efficacy (%) HepG2
HepG2 cells [2] = conditions: cited from earlier work
rat primary hepatocytes = test: MMP assay in rat primary hepatocytes; conditions: for IC50: Rattus norvegicus, Hepatocyte; for MMP assays efficacy (%) Rat Hepatocytes / MMP assays IC50 (µM) Rat Hepatocytes: mean ± SD of three experiments
[3] = HepG2, read-out: MMP assays IC50 (µM) HepG2
[4] = read-out: MMP assays IC50 (µM), qHTS-HepG2
[5] = read-out: MMP assays IC50 (µM) Rat Hepatocytes
[6] = read-out: MMP assays IC50 (µM) qHTS-HepG2

SMILES | IC50 (HepG2 cells [1]; [3]) | Emax (HepG2 cells [1]) | MMP assays efficacy (%) qHTS-HepG2 (HepG2 cells [2]) | IC50 (HepG2 cells [2]; [4]) | IC50 (rat primary hepatocytes; [5]) | MMP assays efficacy (%) Rat Hepatocytes (rat primary hepatocytes) | IC50 (HepG2 cells [2]; [6]) | MMP assays IC50 (µM) Rat Hepatocytes (rat primary hepatocytes) | IC50 (HepG2 cells [1]; HepG2, read-out: IC50 in HepG2 cells (MMP, tier-one retest)) | IC50 (rat primary hepatocytes; 1 h, read-out: IC50 in rat primary hepatocytes (MMP, tier-one retest))
CN1C(=O)/C(=N\NC(N)=S)c2ccccc21 [Methisazone] | 12.6 µM | 90% | -96±7% | 5.82 ± 1.38 µM | 21.5 ± 9.04 µM | -94±16% | – | – | – | –
O=c1cc(-c2ccccc2)oc2cc(O)cc(O)c12 [Chrysin] | 7.08 µM | 105% | -103±9% | – | 30.6 ± 28.4 µM | -78±36% | 5.05 ± 2.76 µM | – | – | –
COC(=O)C1=C(C)NC(C)=C(C(=O)OCCN2CCN(C(c3ccccc3)c3ccccc3)CC2)C1c1cccc([N+](=O)[O-])c1 (centres unmarked) [Manidipine] | 27.5 µM | 98% | -95±13% | 12.2 ± 6.82 µM | 20.9 ± 5.06 µM | -40±8% | – | – | – | –
Cc1cc(O)c2c(O)c3c(O)cccc3cc2c1 [Chrysarobin] | 30.8 µM | 90% | -105±7% | – | 19.3 ± 8.27 µM | -52±8% | 22.8 ± 3.93 µM | – | – | –
Oc1ccc(/N=N/c2ccccc2)cc1 [p-Phenylazophenol] | 10 µM | 107% | -96±7% | 4.06 ± 1.23 µM | – | inactive | – | inactive | – | –
Cc1c(Nc2ncccc2C(=O)O)cccc1C(F)(F)F [Flunixin meglumine] | 7.4 µM | 83% | -123±14% | 9.02 µM | 5.77 ± 4.59 µM | -107±11% | – | – | – | –
O=C1CN(/N=C/c2ccc([N+](=O)[O-])o2)C(=O)N1 [Nitrofurantoin] | – | 87% | -70±6% | 26.3 ± 6.35 µM | – | – | – | – | – | –
O=C(Nc1ncc([N+](=O)[O-])s1)c1cccs1 [Tenonitrozole] | 0.56 µM | 99% | -95±3% | 0.73 ± 0.12 µM | 0.68 ± 0.45 µM | – | – | – | – | –
CCCOC(=O)c1cc(O)c(O)c(O)c1 [Propyl gallate] | 35.5 µM | 97% | -88±15% | 42.3 ± 3.93 µM | – | inactive | – | inactive | – | –
O=C(Nc1cccc(C(F)(F)F)c1)c1cc(Br)cc(Br)c1O [fluorosalan] | – | 100% | -104±5% | 0.24 ± 0.09 µM | – | -74±9% | – | – | 0.19 µM | 0.42 µM
Cc1ccc2c(Cl)cc(Cl)c(O)c2n1 [5,7-Dichloro-8-hydroxy-2-methylquinoline] | 1.38 µM | 60% | -120±20% | – | – | inactive | 11 ± 2 µM | inactive | – | –
CC(C)(c1ccc(O)cc1)c1ccc(O)cc1 [Bisphenol A] | 15.8 µM | 111% | -122±14% | – | 37.6 ± 3.06 µM | -59±20% | 14 ± 6.29 µM | – | – | –
CC(C)=CCOc1ccc(/C=C/C(=O)c2ccc(OCC=C(C)C)cc2OCC(=O)O)cc1 [Sofalcone] | 17.3 µM | 92% | -118±8% | 24.6 ± 1.67 µM | 19.5 ± 2.25 µM | -65±23% | – | – | – | –
ON=C1C=CC(=NO)C=C1 [p-Benzoquinone dioxime] | 25.1 µM | 58% | -71±6% | 43.3 ± 14.9 µM | – | inactive | – | inactive | – | –
Cc1c(C(=O)NN2CCCCC2)nn(-c2ccc(Cl)cc2Cl)c1-c1ccc(Cl)cc1 [Rimonabant] | 17.3 µM | 73% | -127±12% | 25.6 ± 1.67 µM | 17.4 ± 2.83 µM | -53±1% | – | – | – | –
CCC(=O)OCC(=O)[C@@]1(OC(=O)CC)[C@@H](C)C[C@H]2[C@@H]3CCC4=CC(=O)C=C[C@]4(C)[C@@]3(F)[C@@H](O)C[C@@]21C [Betamethasone dipropionate] | 19.4 µM | 63% | -118±9% | – | – | inactive | 25.6 ± 1.67 µM | inactive | – | –
CC(C)(C)c1ccc(OC(=O)c2ccccc2O)cc1 [4-tert-Butylphenyl salicylate] | 35.5 µM | 90% | -78±23% | – | – | inactive | 28.4 ± 3.64 µM | inactive | – | –

SMILES | IC50 (HepG2 cells [1]; [3]) | Emax (HepG2 cells [1]) | MMP assays efficacy (%) qHTS-HepG2 (HepG2 cells [2]) | IC50 (HepG2 cells [2]; [4]) | IC50 (rat primary hepatocytes; [5]) | MMP assays efficacy (%) Rat Hepatocytes (rat primary hepatocytes) | IC50 (HepG2 cells [2]; [6]) | MMP assays IC50 (µM) Rat Hepatocytes (rat primary hepatocytes) | IC50 (HepG2 cells [1]; HepG2, read-out: IC50 in HepG2 cells (MMP, tier-one retest)) | IC50 (rat primary hepatocytes; 1 h, read-out: IC50 in rat primary hepatocytes (MMP, tier-one retest))
COCCOC(=O)C1=C(C)NC(C)=C(C(=O)OC/C=C/c2ccccc2)C1c1cccc([N+](=O)[O-])c1 (centres unmarked) [Cilnidipine] | 12.3 µM | 109% | -104±6% | – | 14.8 ± 8.07 µM | -75±17% | 12.5 ± 1.78 µM | – | – | –
CC(C)OC(=O)C(C(=O)OC(C)C)=C1SC=CS1 [Malotilate] | 39.8 µM | 79% | -82±14% | 15 ± 1.99 µM | 23.9 ± 29.3 µM | -106±108% | – | – | – | –
O=C1c2cccc(O)c2C(=O)c2c(O)cc(CO)cc21 [Aloe-emodin] | 7.08 µM | 90% | -78±8% | – | 8.43 ± 5.96 µM | -48±19% | 1.79 ± 1.54 µM | – | – | –
C#C[C@]1(O)CC[C@H]2[C@@H]3CCC4=CCCC[C@@H]4[C@H]3CC[C@@]21C [Lynestrenol] | 7.4 µM | 55% | -104±10% | 16.6 ± 2.15 µM | – | inactive | – | inactive | – | –
CC(=O)Oc1ccc2c(c1)CC[C@@H]1[C@@H]2CC[C@]2(C)[C@@H](O)CC[C@@H]12 [Estradiol acetate] | 17.3 µM | 95% | -85±4% | – | – | inactive | 9.08 ± 0.59 µM | inactive | – | –
COC(=O)C1=C(C)NC(C)=C(C(=O)OC(C)(C)CN(C)CCC(c2ccccc2)c2ccccc2)C1c1cccc([N+](=O)[O-])c1 (centres unmarked) [Lercanidipine hydrochloride] | – | 117% | -83±7% | 6.53 ± 0.53 µM | 27.5 µM | -77±16% | – | – | – | –
CCC(C)(C)c1ccc(CC(C)CN2C[C@@H](C)O[C@@H](C)C2)cc1 (some centres unmarked) [Amorolfine] | 17.3 µM | 82% | -63±11% | – | – | inactive | 21.6 ± 3.47 µM | inactive | – | –
CCC(CC)(CC(=O)Nc1cccc(/C=C/c2nc(C3CCC3)cs2)c1)C(=O)O [Cinalukast] | 17.3 µM | 96% | -92±29% | – | 13.5 ± 5.36 µM | -67±19% | 28.8 ± 1.17 µM | – | – | –
CCOC1O[C@H]([C@@H](COCc2ccccc2)OCc2ccccc2)[C@H](OCc2ccccc2)[C@H]1O (some centres unmarked) [Tribenoside] | 11.7 µM | 61% | -114±21% | 11.8 ± 0.8 µM | – | inactive | – | inactive | – | –
CC(C)C(=O)OCC(=O)[C@@]12O[C@H](C3CCCCC3)O[C@@H]1C[C@H]1[C@@H]3CCC4=CC(=O)C=C[C@]4(C)[C@H]3[C@@H](O)C[C@@]12C [Ciclesonide] | 15.5 µM | 103% | – | – | – | inactive | 7.91 ± 1.38 µM | inactive | – | –
CCN(CC)c1ccc(N)cc1 [N,N-Diethylbenzene-1,4-diamine] | 7.94 µM | 118% | -103±16% | 49.9 ± 3.51 µM | 31.6 µM | -105±29% | – | – | – | –
CC(O)(c1ccc(Cl)cc1)c1ccc(Cl)cc1 [Chlorfenethol] | 12.6 µM | 100% | -110±19% | – | 18.9 ± 5.35 µM | -90±2% | 26.3 ± 7.53 µM | – | – | –
Cc1ccc2c(c1[N+](=O)[O-])C(=O)c1ccccc1C2=O [Compound 2-Methyl-1-nitroanthraquinone] | 2.77 µM | 88% | -63±13% | – | 16.9 ± 14.7 µM | -84±16% | 1.34 ± 0.15 µM | – | – | –
Nc1ccc2c(O)cc(S(=O)(=O)O)cc2c1 | 39.8 µM | 40% | -55±5% | – | – | inactive | 27.3 ± 3.73 µM | inactive | – | –
C#C[C@]1(O)CC[C@H]2[C@@H]3CCC4=CC(=NO)CC[C@@H]4[C@H]3CC[C@@]21CC (mixture of isomers) [Norelgestromin] | 19.4 µM | 121% | -122±2% | 13.5 ± 6.64 µM | 13.4 ± 12.3 µM | -55±21% | – | – | – | –
Cc1cc(/C=C/c2ccc3cc(N(C)C)ccc3[n+]2C)c(C)n1-c1ccccc1 [Pyrvinium pamoate] | 0.17 µM | 91% | -108±33% | 2.02 ± 1.2 µM | – | – | – | – | – | –
Nc1ccc(N)c([N+](=O)[O-])c1 [2-Nitro-1,4-phenylenediamine] | 12.6 µM | 87% | -85±13% | – | – | – | 7.07 ± 6.53 µM | – | – | –
